The structures appear in SMILES notation.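 All cell lines were grown in 96-well plates and treated with compound for 48 hours. TGI marks complete inhibition of growth.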 Bounds are passed on as bounds.

Consider 16 compounds from PubChem BioAssay (NCI).

Test systems include 786-0 renal; ACHN renal; EKVX NSCLC; HCT-116 colon; HOP-62 NSCLC; HS 578T breast; HT29 colon; NCI-H23 lung; OVCAR-8 ovarian; RXF 393 renal; SK-MEL-28 melanoma; SK-MEL-5 melanoma; SN12C renal; SNB-19 CNS; SW-620 colon; UO-31 renal; SK-MEL-2 melanoma; LOX IMVI melanoma; MCF7 breast.
What all share (test): inhibition of tumour cell growth, NCI panel, 48 h

As to `CC(=O)O[C@H]1C(=O)[C@@]2(C)[C@H]([C@H](OC(=O)c3cccc(C(F)(F)F)c3)[C@]3(O)C[C@H](OC(=O)[C@H](O)[C@@H](NC(=O)c4ccccc4)c4ccccc4)C(C)=C1C3(C)C)[C@]1(OC(C)=O)CO[C@@H]1C[C@@H]2O`, the TGI in the assay on 786-0 renal is 4.49 µM; with ACHN renal, over 9.46 µM; in the assay on EKVX NSCLC, over 25 µM; in the assay on HCT-116 colon, 3.21 µM; with HOP-62 NSCLC it was over 14.2 µM; in the assay with HS 578T breast, 0.0653 µM. The TGI in the assay with HT29 colon is 3.84 µM; in the assay with NCI-H23 lung, over 25 µM; in the assay with OVCAR-8 ovarian, 7.61 µM; in the assay with RXF 393 renal, 0.809 µM; with SK-MEL-28 melanoma, over 25 µM; in the assay on SK-MEL-5 melanoma, 4.33 µM. For the same compound, the TGI with SN12C renal was over 25 µM; in the assay on SNB-19 CNS, over 25 µM; in the assay on SW-620 colon it was over 16.4 µM; in the assay on UO-31 renal, over 15.9 µM.

As for `Oc1cc(Br)cc2cccnc12`, the TGI in the assay with 786-0 renal was 38 µM; with ACHN renal, over 69 µM; with EKVX NSCLC it was 16.2 µM; with HCT-116 colon it was 16.8 µM; in the assay on HOP-62 NSCLC, 81.9 µM; in the assay on HS 578T breast, over 100 µM. For the same compound, the TGI in the assay with HT29 colon was 35 µM; in the assay with NCI-H23 lung it was 31.2 µM; in the assay on OVCAR-8 ovarian it was over 35.4 µM; in the assay with RXF 393 renal, 30.4 µM; in the assay on SK-MEL-2 melanoma, over 100 µM; with SK-MEL-28 melanoma, over 100 µM. Besides, the TGI in the assay on SK-MEL-5 melanoma is 15.1 µM; in the assay with SN12C renal, over 55.6 µM; in the assay on SNB-19 CNS it was over 100 µM; with SW-620 colon, 16.9 µM; in the assay on UO-31 renal, 35.9 µM.

As for `Nc1ccc2nc(Nc3ccc(F)cc3)cnc2c1`, the TGI in the assay on 786-0 renal, with ACHN renal, in the assay with EKVX NSCLC, in the assay with HCT-116 colon, in the assay on HOP-62 NSCLC and with HT29 colon was over 100 µM each time. Moreover, the TGI in the assay with LOX IMVI melanoma, with OVCAR-8 ovarian, with SK-MEL-2 melanoma, in the assay with SK-MEL-28 melanoma, in the assay on SK-MEL-5 melanoma and with SN12C renal was over 100 µM throughout. Moreover, the TGI in the assay on SNB-19 CNS, with SW-620 colon and with UO-31 renal was over 100 µM throughout.

On to `CC(C)(C)c1cc(C(C)(C)C)c(SS(=O)(=O)O)c(O)c1O`, for which the TGI in the assay with 786-0 renal, with ACHN renal, with EKVX NSCLC, in the assay on HCT-116 colon, in the assay on HOP-62 NSCLC and in the assay on HT29 colon was over 100 µM in each case. Besides, the TGI in the assay on LOX IMVI melanoma is over 100 µM; in the assay on MCF7 breast, over 100 µM; in the assay on NCI-H23 lung, over 100 µM; with OVCAR-8 ovarian, over 100 µM; in the assay on RXF 393 renal, 97.9 µM; with SK-MEL-2 melanoma, 94.5 µM. Also, the TGI in the assay with SK-MEL-28 melanoma, in the assay on SK-MEL-5 melanoma, in the assay on SN12C renal, in the assay on SNB-19 CNS, in the assay with SW-620 colon and in the assay on UO-31 renal was over 100 µM throughout.

`CC(C)(C)c1cc(-c2cc(C(C)(C)C)n(-c3ccccc3)n2)nn1-c1ccccc1`: the TGI in the assay on 786-0 renal, in the assay with ACHN renal, with EKVX NSCLC, with HCT-116 colon, in the assay with HOP-62 NSCLC and in the assay on HT29 colon was over 100 µM in each case. Also, the TGI with LOX IMVI melanoma, with MCF7 breast, in the assay with NCI-H23 lung, in the assay on OVCAR-8 ovarian, in the assay with RXF 393 renal and with SK-MEL-2 melanoma was over 100 µM in each case. The TGI in the assay with SK-MEL-28 melanoma, with SK-MEL-5 melanoma, in the assay with SN12C renal, in the assay on SW-620 colon and with UO-31 renal was over 100 µM throughout.

As to `O=S1CCS(=O)CCS(=O)CC1` (configuration not stated), the TGI in the assay with 786-0 renal, in the assay with EKVX NSCLC, in the assay on HCT-116 colon, in the assay with HOP-62 NSCLC, with HT29 colon and in the assay with LOX IMVI melanoma was over 100 µM throughout. Also, the TGI in the assay on MCF7 breast, in the assay on NCI-H23 lung, in the assay on OVCAR-8 ovarian, in the assay on SK-MEL-28 melanoma, in the assay on SK-MEL-5 melanoma and with SN12C renal was over 100 µM in each case. The TGI in the assay with SNB-19 CNS, in the assay with SW-620 colon and in the assay with UO-31 renal was over 100 µM each time.

With `N=C(c1ccc2ccccc2c1)c1ccccc1Cc1ccccc1`, the TGI in the assay with 786-0 renal, with ACHN renal, with EKVX NSCLC, in the assay with HCT-116 colon, with HOP-62 NSCLC and in the assay on HT29 colon was over 100 µM throughout. Further, the TGI in the assay with LOX IMVI melanoma is over 100 µM; with MCF7 breast, over 100 µM; in the assay on NCI-H23 lung, over 100 µM; in the assay with OVCAR-8 ovarian, over 100 µM; in the assay on RXF 393 renal it was 34.4 µM; in the assay on SK-MEL-2 melanoma, 49.6 µM. For the same compound, the TGI in the assay on SK-MEL-28 melanoma, in the assay with SK-MEL-5 melanoma, in the assay with SN12C renal, in the assay with SNB-19 CNS, with SW-620 colon and in the assay on UO-31 renal was over 100 µM each time.

On to `COc1ccc2nc3ccc(OC)cc3c(SCc3ccc([N+](=O)[O-])cc3)c2c1`, for which the TGI in the assay with 786-0 renal, in the assay on ACHN renal, in the assay on EKVX NSCLC, in the assay with HCT-116 colon, in the assay on HOP-62 NSCLC and in the assay with HT29 colon was over 100 µM throughout. The TGI in the assay with LOX IMVI melanoma, in the assay on NCI-H23 lung, in the assay with OVCAR-8 ovarian, in the assay on RXF 393 renal, with SK-MEL-2 melanoma and in the assay on SK-MEL-28 melanoma was over 100 µM in each case. The TGI in the assay with SN12C renal, with SNB-19 CNS, in the assay with SW-620 colon and in the assay on UO-31 renal was over 100 µM throughout.

Turning to `CC(=O)OCC1OC(n2c(-c3ccccc3)c(C(C)=O)c(-c3ccc(Cl)cc3)c(C#N)c2=S)C(OC(C)=O)C(OC(C)=O)C1OC(C)=O` (configuration not stated), the TGI with 786-0 renal, with ACHN renal, in the assay on EKVX NSCLC, in the assay with HCT-116 colon, with HOP-62 NSCLC and with HT29 colon was over 100 µM throughout. Besides, the TGI in the assay with LOX IMVI melanoma, with MCF7 breast, in the assay with NCI-H23 lung, in the assay on OVCAR-8 ovarian, in the assay on RXF 393 renal and in the assay with SK-MEL-28 melanoma was over 100 µM in each case. For the same compound, the TGI in the assay with SK-MEL-5 melanoma, in the assay on SN12C renal, with SNB-19 CNS and with SW-620 colon was over 100 µM each time.

As to `CS/C1=C(\c2ccc(C)cc2)N(c2ccccc2)C(=O)C(=O)N(c2ccccc2)/C(c2ccc(C)cc2)=C(/SC)SS1`, the TGI with 786-0 renal, in the assay with ACHN renal, with EKVX NSCLC, with HCT-116 colon, in the assay with HOP-62 NSCLC and in the assay with HT29 colon was over 100 µM in each case. In addition, the TGI in the assay with LOX IMVI melanoma, in the assay on MCF7 breast, in the assay with NCI-H23 lung, in the assay with OVCAR-8 ovarian, in the assay on SK-MEL-2 melanoma and with SK-MEL-28 melanoma was over 100 µM throughout. Moreover, the TGI with SN12C renal, in the assay on SNB-19 CNS, in the assay with SW-620 colon and in the assay with UO-31 renal was over 100 µM throughout.

Consider `FC(F)(Sc1ccccn1)c1nc2ccccc2o1`, for which the TGI in the assay on 786-0 renal, in the assay on ACHN renal, in the assay on HCT-116 colon, in the assay on HOP-62 NSCLC, in the assay with HT29 colon and in the assay with MCF7 breast was over 100 µM each time. Further, the TGI in the assay on NCI-H23 lung, with OVCAR-8 ovarian, in the assay on RXF 393 renal, in the assay on SK-MEL-2 melanoma, with SK-MEL-28 melanoma and in the assay on SK-MEL-5 melanoma was over 100 µM throughout. Further, the TGI with SN12C renal, with SW-620 colon and with UO-31 renal was over 100 µM in each case.

`C=C(C)C1Cc2c(cc(O)c3c(=O)c4c(oc23)C(O)Oc2cc(OC)c(OC)cc2-4)O1` (configuration not stated): the TGI in the assay on 786-0 renal, with ACHN renal, in the assay with EKVX NSCLC, in the assay with HCT-116 colon, in the assay on HOP-62 NSCLC and in the assay on HT29 colon was over 10 µM in each case. In addition, the TGI in the assay with MCF7 breast, with NCI-H23 lung, with OVCAR-8 ovarian, in the assay on RXF 393 renal, in the assay with SK-MEL-28 melanoma and with SN12C renal was over 10 µM each time. Besides, the TGI in the assay on SNB-19 CNS, in the assay with SW-620 colon and in the assay on UO-31 renal was over 10 µM throughout.

For `COC(=O)c1sc2ncc3c(c2c1N)CCCCCC3`, the TGI with 786-0 renal, in the assay with ACHN renal, in the assay on EKVX NSCLC, with HCT-116 colon, with HOP-62 NSCLC and with HT29 colon was over 100 µM throughout. Further, the TGI in the assay with LOX IMVI melanoma, in the assay on MCF7 breast, with NCI-H23 lung, with OVCAR-8 ovarian, in the assay on RXF 393 renal and with SK-MEL-2 melanoma was over 100 µM in each case. The TGI in the assay on SK-MEL-28 melanoma, in the assay with SK-MEL-5 melanoma, in the assay on SN12C renal, in the assay on SNB-19 CNS, in the assay on SW-620 colon and in the assay on UO-31 renal was over 100 µM throughout.

As to `COc1cc(C2c3cc(O)c(OC)cc3C3OCC2C3CO)ccc1O` (configuration not stated), the TGI in the assay on 786-0 renal, in the assay with ACHN renal, in the assay with EKVX NSCLC, in the assay with HCT-116 colon, in the assay with HOP-62 NSCLC and in the assay on HT29 colon was over 100 µM each time. Besides, the TGI with LOX IMVI melanoma, in the assay with MCF7 breast, with NCI-H23 lung, with RXF 393 renal, in the assay with SK-MEL-2 melanoma and with SK-MEL-28 melanoma was over 100 µM in each case. Moreover, the TGI in the assay on SK-MEL-5 melanoma, with SNB-19 CNS, with SW-620 colon and in the assay with UO-31 renal was over 100 µM in each case.

Consider `O/C(=C\c1nc2ccccc2nc1/C=C(\O)c1ccc(Cl)cc1)c1ccccc1`, for which the TGI with 786-0 renal, with ACHN renal, with EKVX NSCLC, with HCT-116 colon, in the assay with HOP-62 NSCLC and in the assay with LOX IMVI melanoma was over 100 µM each time. Moreover, the TGI in the assay on MCF7 breast, in the assay with NCI-H23 lung, with OVCAR-8 ovarian, in the assay with RXF 393 renal, in the assay on SK-MEL-2 melanoma and in the assay with SK-MEL-28 melanoma was over 100 µM in each case. Also, the TGI in the assay on SK-MEL-5 melanoma, in the assay on SN12C renal, with SNB-19 CNS, in the assay with SW-620 colon and in the assay on UO-31 renal was over 100 µM throughout.

With `O=C1SS(=O)c2ccccc21` (configuration not stated), the TGI with 786-0 renal, with ACHN renal, in the assay with EKVX NSCLC, with HCT-116 colon, in the assay with HOP-62 NSCLC and with HT29 colon was over 100 µM throughout. The TGI in the assay on LOX IMVI melanoma, with MCF7 breast, with NCI-H23 lung, with OVCAR-8 ovarian, in the assay on SK-MEL-2 melanoma and in the assay with SK-MEL-28 melanoma was over 100 µM throughout. Besides, the TGI in the assay with SK-MEL-5 melanoma, in the assay with SN12C renal, with SNB-19 CNS, with SW-620 colon and in the assay with UO-31 renal was over 100 µM in each case.
